Read-outs that look alike come from different tables or passages of the source.
How the values were obtained:
[1] = system: Env 134-specific T cell line; assay: Env 134-specific T cell line (stimulated five times with the immunizing peptide): recognition and titration of variant peptides; type: cell-based, mouse; settings: Env 134 line; for Peptide concentration at which any IFN-γ secretion was detected: highest peptide concentration examined; for Enrichment of CTL able to recognize the peptide: one versus five stimulations; for Affinity reduced from the parent peptide: peptide titration
[2] = system: Gag 386-specific T cell line; assay: Gag 386-specific T cell line (stimulated five times with the immunizing peptide): recognition and titration of variant peptides; type: cell-based, mouse; settings: Gag 386 line; for Peptide affinity (titration against CTL stimulated 5 times with the parent peptide): IFN-γ
From the text: Recognition after multiple restimulations The observed recognition of variant peptides by CTL raised against the parent peptide might be due to either promiscuous recognition at the level of a single TCR or simply a mixture of TCRs against the immunizing peptide which are each able to recognize subtly different peptides. To distinguish between these two possibilities, Env 134- or Gag 386-specific T cell lines were generated by stimulating five times with the immunizing peptide, and then tested for recognition of a partial panel of variant peptides. These T cell lines were also characterized for Vβ TCR usage against a panel of antibodies predicted to react with the TCR of the mouse strains utilized for these experiments.
Because the SU is a measure of the number of cells needed to secrete a defined amount of IFN-γ, a higher SU value would correspond to an enrichment of IFN-γ, producing cells.
Both lines were also characterized with regard to the affinity of certain of the variant peptides by titrating the variant peptides examined above (Table 5A and 5B).

Gag 271 variants = assay: Gag 271 variant immunogenicity tested using HLA-A2 transgenic mice; type: in vivo; settings: 167 HIV variants
From the text: This particular group of 21 epitopes was selected based on their identity conservation in Clade B HIV sequences, with conservation across HIV clades as a secondary consideration. Because of this criteria, the form of epitope chosen as the parent peptide was not the most common variant (e.g. Gag 386, Gag 271, Pol 98). In some cases (e.g., see Gag 386 data), the “parent” epitope and the most common variant were recognized to the same extent. However, in some cases the selection of epitope to include as the “parent” epitope was predicted to make a difference in the immunological conservation. An example of this was the Gag 271 epitope (FIG. 4). The variant most commonly seen in clade B sequences was the […] form, while the most common form of the epitope was […]. Not all amino acids are considered equal to each other in their ability to substitute (Tangri). For example, asparagine (N) is considered a conservative substitution for serine (S), while the opposite substitution in only considered semi-conserved. When the program calculated immunological conservation using the […] peptide as the parent peptide, only two variants were predicted to be immunogenic. […] This prediction was tested using HLA-A2 transgenic mice. […] This has important implications in epitope selection for vaccine development, and epitope performance can be predicted.

HLA-DR molecules = settings: cited from earlier work
normal human T cells = type: cell-based
[3] = system: CTL primed against the parent peptide; assay: Recognition of variant peptides by CTL from DNA-immunized HLA-A11/K^b transgenic mice (IFN-γ secretion after restimulation of splenocytes); type: cell-based; settings: parent Pol 98
From the text: Variants corresponding to five HLA-A2 and -A3 restricted epitopes from 167 HIV varianst were identified and synthesized. These represented all the complete sequences in the Los Alamos database at the time (116 strains), as well as 51 complete clade C sequences from Botswana, and included 22 subtype B and 62 subtype C sequences. These peptides were then characterized with regard to MHC binding, variant distribution, and immunogenicity. To measure immunogenicity, HLA-A2/K^b or HLA-A11/K^b transgenic mice were immunized with the epitopes encoded in a DNA based format ( ). Eleven days after immunization, splenocytes were restimulated with either the epitope corresponding to the epitope encoded by the DNA (parent) or each of the variant peptides. After 6 days in culture, IFN-γ secretion was measured in response to the peptide used to stimulate each culture.

[4] = system: patients with recurrent or residual cervical carcinoma; settings: co-emulsified with HPV-derived CTL epitopes, cited from earlier work

Which “Activity as measured by SU after five restimulations” value (“Activity as measured by SU” for short) [1] does the source give for ELTPLCVTL [Env 134 variant] here?
The value was “lowest activity”.

And the “Peptide concentration at which any IFN-γ secretion was detected” value (“Peptide concentration” below) [1]?
Its value is 1 µg/mL.

What about the “Enrichment of CTL able to recognize the peptide” value (from here on “Enrichment of CTL able”) [1] of the same substance?
The value was “little or no enrichment”.

With ILAEAMSKA [Gag 386 variant] as the substance, how does the “Recognition of variant peptides (SU, IFN-γ), one versus five peptide stimulations” value [2] read?
Its value is “never recognized”.

And the “Peptide affinity (titration against CTL stimulated 5 times with the parent peptide)” value (shortened to “Peptide affinity”) [2]?
Its value is “not recognized”.

Which “Affinity reduced from the parent peptide” value [1] does the source give for KITPLCVTL [Env 134 variant] here?
Its value is “approximately 10 fold”.

Which “Activity as measured by SU” value [1] does the source give for KLTPFCVTL [Env 134 variant] here?
The value was “lowest activity”.

And the “Peptide concentration” value [1]?
The value was 1 µg/mL.

What about the “Enrichment of CTL able” value [1] of the same substance?
Its value is “little or no enrichment”.

Which results are given for KLTPLCVIL [Env 134 variant]?
Activity as measured by SU after five restimulations [1]: lowest activity; Peptide concentration at which any IFN-γ secretion was detected [1]: 1 µg/mL; Enrichment of CTL able to recognize the peptide [1]: little or no enrichment

Which “Activity as measured by SU” value [1] does the source give for KLTPLCVPL [Env 134 variant] here?
The value was “lowest activity”.

And the “Peptide concentration” value [1]?
The value was 1 µg/mL.

What about the “Enrichment of CTL able” value [1] of the same substance?
The value was “little or no enrichment”.

Which “Variants that would be recognized if this form of the peptide was utilized in vaccines” value (Gag 271 variants) does the source give for MTNNPPIPV here?
Its value is 39 of 167 variants.

With MTSNPPIPV as the substance, how does the “Variants that would be recognized if this form of the peptide was utilized in vaccines” value (Gag 271 variants) read?
Its value is “approximately 152 of 167 variants”.

With QITPLCVTL [Env 134 variant] as the substance, how does the “Activity as measured by SU” value [1] read?
The value was “lowest activity”.

And the “Peptide concentration” value [1]?
Its value is 1 µg/mL.

And the “Enrichment of CTL able” value [1]?
The value was “little or no enrichment”.

For QLTPLCVTL [Env 134 variant], which “Affinity reduced from the parent peptide” value [1] is on record?
The value was ~100 fold.

With QYIKANSKFIGITE [TT 830-843] as the substance, how does the DR molecules bound (HLA-DR molecules) read?
Its DR molecules bound is “seven”.

And the “Antigen concentration at which the 10,000 cpm proliferation level was reached” value (normal human T cells)?
Its value is “about 10,000 ng/ml”.

What about the “Donors with primary T cell responses” value (normal human T cells) of the same substance?
Its value is 2.

Which “Peptide affinity” value [2] does the source give for “VLAEAMSQI [Gag 386 single anchor variant]” here?
Its value is “highest affinity”.

For VLAEAMSQV [Gag 386], which “Peptide affinity” value [2] is on record?
Its value is “highest affinity”.

Which “Recognition relative to the parent peptide” value [3] does the source give for VSIKVGGQIK here?
The value was ≤ 10 fold.

For “aKXVAAWTLKAAa-NH2 [PADRE®, a=D-alanine, X=cyclohexylalanine]”, which Safety [4] is on record?
Its Safety is “favorable safety profile”.

And the “Patients in whom PADRE T cell reactivity was detected” value ([4]; immunocompromised patients)?
Its value is “four”.

And the “Potency relative to TT 830-843 antigen for activation of T cell responses, on a molar basis” value (normal human T cells)?
The value was “about 100 fold”.

And the “Donors with primary T cell responses” value (normal human T cells; three normal donors tested)?
Its value is “three”.

From US20070054262A1, “Methods of identifying optimal variants of peptide epitopes” (priority 2003, published 2007)
